The values below come from patent US20220087974A1, “METHOD AGAINST CORONAVIRUS INFECTION WITH COUMARIN-DERIVED COMPOUND” (CHANG GUNG UNIVERSITY, priority 2020, published 2022).

The term EC50 denotes the concentration that produces a half-maximal response. Low values mean an effect from little substance, high ones a need for much substance.

For one experiment, the system named is HcoV-229E. Nature of the experiment: MTT cell viability assay of HcoV-229E-infected Vero E6 cells. The class given is cell-based, human coronavirus 229E. Here is the method:
Vero E6 cells were divided into 5 groups, including one normal control group, one pathological control group, and three experimental groups (i.e., experimental groups 1 to 3). Each group of the Vero E6 cells was incubated in a respective well of a 96-well culture plate containing 100 μL of E2 medium at 2×10^4 cells/well, followed by cultivation in an incubator (37° C., 5% CO2) for 24 hours. Afterwards, the culture medium in each well was removed, and the cells of the experimental groups 1 to 3 were pretreated with 8-benzoyl-4-methyl-9-phenyl-furo[2,3-h]chromen-2-one (i.e., HP520-2) (Cat. No. STL-513320, Vitas-M Laboratory) respectively at concentrations of 20 nM, 40 nM, and 80 nM, followed by adding 150 μL of the HcoV-229E solution prepared in section 2 of General Experimental Materials. […]
Each group was cultivated in an incubator (37° C., 5% CO2) for 96 hours. […] After cultivation in an incubator (37° C., 5% CO2) for 2 hours, the respective resultant cell culture was added with 150 μL of dimethyl sulfoxide (DMSO), followed by subjecting the mixture thus obtained to determination of absorbance at a wavelength of 590 nm (OD590) by an ELISA reader.
The cell viability rate (%) was calculated using the following Equation (I): […]
For orientation: Tetrazolium assays rely on reduction of a dye to a coloured formazan, in cell work by metabolically active cells.

A further experiment deals with SARS-CoV-2. Nature of the experiment: Viral plaque reduction assay. The class given is cell-based. As to conditions: SARS-CoV-2-infected Vero E6 cells, m.o.i. 0.01, HP520-2, 72 hours, versus pathological control group. In general terms: Plaques are areas of infected cells; plaque reduction assays count them against a control.
Experiment [1] relates to Envelope (E) gene of SARS-CoV-2. Nature of the experiment: Quantitative determination of viral gene expression (real-time PCR of E gene). The class given is cell-based, severe acute respiratory syndrome coronavirus 2. To be noted: Vero E6 cells pretreated at 15.625 nM and 62.5 nM (experimental groups 2 to 3), m.o.i. 0.01, versus pathological control group. A general note: Quantitative PCR measures a nucleic acid by following its amplification.

Turning to `Cc1cc(=O)oc2c1ccc1oc(C(=O)c3ccccc3)c(-c3ccccc3)c12` [HP520-2, 8-benzoyl-4-methyl-9-phenyl-furo[2,3-h]chromen-2-one], the midpoint of the response with HcoV-229E (Human coronavirus 229E, Vero C1008, Vero E6 cells, HcoV-229E, 96 hours, MTT, n=3, mean±SD), the EC50, lay at 0.039 ± 0.015 µM. Besides, in the experiment on HcoV-229E (Vero E6 cells pretreated at 20 nM, 40 nM, 80 nM, versus pathological control group, FIG. 1), the cell viability rate entry is “significantly higher than that determined in the pathological control group”. The “number of viral plaques” value in the experiment on SARS-CoV-2 is listed as “lower than that determined in the pathological control group”. In addition, the “relative RNA expression level of E gene of SARS-CoV-2” value in experiment [1] is given as “significantly lower than that of the pathological control group”.
